Source: paper PMC11240139, “Exploring the antitumor potential of novel quinoline derivatives via tubulin polymerization inhibition in breast cancer; design, synthesis and molecular docking” (RSC Advances, 2024)

Tests used:
Assay type in all cases: cell-based
[1] = system: HOP-62 (non-small cell lung cancer); test: NCI-60 SRB cytotoxicity screen
UACC-62 (melanoma) = test: NCI-60 SRB cytotoxicity screen
T-47D (breast cancer) = test: NCI-60 SRB cytotoxicity screen
[2] = system: A549/ATCC (non-small cell lung cancer); test: NCI-60 SRB cytotoxicity screen
K-562 (leukemia) = test: NCI-60 SRB cytotoxicity screen
OVCAR-4 (ovarian cancer) = test: NCI-60 SRB cytotoxicity screen
HS 578T (breast cancer) = test: NCI-60 SRB cytotoxicity screen
RXF 393 (renal cancer) = test: NCI-60 SRB cytotoxicity screen
HL-60(TB) (leukemia) = test: NCI-60 SRB cytotoxicity screen
[3] = system: NCI-H460 (non-small cell lung cancer); test: NCI-60 SRB cytotoxicity screen
SNB-19 (CNS cancer) = test: NCI-60 SRB cytotoxicity screen
[4] = system: 60 cancer cell lines (NCI); test: NCI-60 single-dose screen, overall verdict over the panel; details: single dose 10 μM, whole panel
In short: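 Compounds were tested at a single 10^−5 M dose across the NCI 60 cell line panel, with cells preincubated 24 h before treatment. Viability was measured by TCA fixation and sulforhodamine B staining, absorbance 540 nm. % cytotoxicity = [1 − (sample/negative control absorbance)] × 100.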

SK-MEL-2 (melanoma) = test: NCI-60 SRB cytotoxicity screen
OVCAR-5 (ovarian cancer) = test: NCI-60 SRB cytotoxicity screen
SK-OV-3 (ovarian cancer) = test: NCI-60 SRB cytotoxicity screen
[5] = system: MDA-MB-468 (breast cancer); test: NCI-60 SRB cytotoxicity screen; details: Homo sapiens
In short: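 NCI-60 single-dose (10^−5 M) screen in MDA-MB-468 with SRB protein-stain read-out after 48 h exposure; cells TCA-fixed and absorbance read at 540 nm. Reported as GI%, with compounds meeting NCI activity criteria then run at five doses (0.01–100 μM).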

[6] = Homo sapiens, HOP-62, five-dose assay
[7] = Homo sapiens, single dose 10 μM, read-out: growth inhibition (GI%)
[8] = Homo sapiens, RXF 393, five-dose assay
[9] = Homo sapiens, NCI-H460, five-dose assay
[10] = Homo sapiens, SNB-19, five-dose assay

`CCc1cccc2cc(-c3cc(-c4cc(OC)c(OC)c(OC)c4)[nH]c(=O)c3C#N)c(Cl)nc12` [Compound 4c, 4-(2-Chloro-8-ethylquinolin-3-yl)-2-oxo-6-(3,4,5-trimethoxyphenyl)-1,2-dihydropyridine-3-carbonitrile] was tested, and the TGI ([1]; HOP-62, five-dose assay) was 78.90 µM, the GI50 [1, 6] was 20.7 µM and the LC50 [1, 6] was > 100 µM. For the same molecule, the inhibition at 10 µM ([1]; Homo sapiens, HOP-62, single dose 10 μM, read-out: growth inhibition (GI%)) was 87.9%, the GI50 (UACC-62 (melanoma); Homo sapiens, UACC-62, five-dose assay) was 17.5 µM and the CC50 (UACC-62 (melanoma); Homo sapiens, UACC-62, five-dose assay, read-out: LC50 (the source's name)) was > 100 µM. The inhibition at 10 µM (UACC-62 (melanoma); Homo sapiens, UACC-62, single dose 10 μM, read-out: growth inhibition (GI%)) was > 100%, the TGI (UACC-62 (melanoma); UACC-62, five-dose assay) was 60.10 µM and the “growth inhibition (GI%)” value (UACC-62 (melanoma); UACC-62, single dose 10 μM) was “lethal effect”. The GI50 (T-47D (breast cancer); Homo sapiens, T47D, five-dose assay) was 12.2 µM, the CC50 (T-47D (breast cancer); Homo sapiens, T47D, five-dose assay, read-out: LC50 (the source's name)) was > 100 µM and the inhibition at 10 µM (T-47D (breast cancer); Homo sapiens, T47D, single dose 10 μM, read-out: growth inhibition (GI%)) was 91.6%. The TGI (T-47D (breast cancer); five-dose assay) was 64.10 µM, the GI50 ([2]; Homo sapiens, five-dose assay) was 12.2 µM and the CC50 ([2]; Homo sapiens, five-dose assay, read-out: LC50 (the source's name)) was > 100 µM. It also gave an inhibition at 10 µM [2, 7] of 88.2%, a TGI ([2]; five-dose assay) of 48.70 µM and a GI50 (K-562 (leukemia); Homo sapiens, K562, K-562, five-dose assay) of 7.72 µM. For the same molecule, the CC50 (K-562 (leukemia); Homo sapiens, K562, K-562, five-dose assay, read-out: LC50 (the source's name)) was > 100 µM, the inhibition at 10 µM (K-562 (leukemia); Homo sapiens, K-652 [sic], single dose 10 μM, read-out: growth inhibition (GI%)) was 31.4% and the TGI (K-562 (leukemia); K-562, five-dose assay) was 43.80 µM. For the same molecule, the GI50 (OVCAR-4 (ovarian cancer); Homo sapiens, OVCAR-4, five-dose assay) was 17.2 µM, the CC50 (OVCAR-4 (ovarian cancer); Homo sapiens, OVCAR-4, five-dose assay, read-out: LC50 (the source's name)) was > 100 µM and the inhibition at 10 µM (OVCAR-4 (ovarian cancer); Homo sapiens, OVCAR-4, single dose 10 μM, read-out: growth inhibition (GI%)) was > 100%. The TGI (OVCAR-4 (ovarian cancer); OVCAR-4, five-dose assay) was >100 µM, the “growth inhibition (GI%)” value (OVCAR-4 (ovarian cancer); OVCAR-4, single dose 10 μM) was “lethal effect” and the GI50 (HS 578T (breast cancer); Homo sapiens, five-dose assay) was 2.38 µM. The LC50 (50% lethal concentration) (HS 578T (breast cancer); Homo sapiens, five-dose assay) was > 100 µM, the inhibition at 10 µM (HS 578T (breast cancer); [7]) was > 100% and the TGI (HS 578T (breast cancer); five-dose assay) was 7.26 µM. For the same molecule, the “growth inhibition (GI%)” value (HS 578T (breast cancer); single dose 10 μM) was “lethal effect”, the GI50 (RXF 393 (renal cancer); [8]) was 2.21 µM and the LC50 (RXF 393 (renal cancer); [8]) was 35.4 µM. The inhibition at 10 µM (RXF 393 (renal cancer); Homo sapiens, RXF 393, single dose 10 μM, read-out: growth inhibition (GI%)) was > 100%, the TGI (RXF 393 (renal cancer); RXF 393, five-dose assay) was 6.69 µM and the “growth inhibition (GI%)” value (RXF 393 (renal cancer); RXF 393, single dose 10 μM) was “lethal effect”. For the same molecule, the GI50 (HL-60(TB) (leukemia); Homo sapiens, five-dose assay) was 13.4 µM, the LC50 (HL-60(TB) (leukemia); Homo sapiens, five-dose assay) was > 100 µM and the inhibition at 10 µM (HL-60(TB) (leukemia); [7]) was 71.3%. For the same molecule, the TGI (HL-60(TB) (leukemia); five-dose assay) was >100 µM, the GI50 [3, 9] was 16.1 µM and the LC50 (50% lethal concentration) [3, 9] was > 100 µM. It also gave an inhibition at 10 µM ([3]; Homo sapiens, NCI-H460, single dose 10 μM, read-out: growth inhibition (GI%)) of 58.6%, a TGI ([3]; NCI-H460, five-dose assay) of 41.80 µM and a GI50 (SNB-19 (CNS cancer); [10]) of 9.25 µM. The LC50 (50% lethal concentration) (SNB-19 (CNS cancer); [10]) was > 100 µM, the inhibition at 10 µM (SNB-19 (CNS cancer); Homo sapiens, SNB-19, single dose 10 μM, read-out: growth inhibition (GI%)) was 89.6% and the TGI (SNB-19 (CNS cancer); SNB-19, five-dose assay) was 50.90 µM. The “cytotoxic activity over the cell lines (in words)” value [4] was “highest level of cytotoxic activity”, the GI50 (SK-MEL-2 (melanoma); Homo sapiens, SK-MEL-2, five-dose assay) was 39.8 µM and the CC50 (SK-MEL-2 (melanoma); Homo sapiens, SK-MEL-2, five-dose assay, read-out: LC50 (the source's name)) was > 100 µM. The inhibition at 10 µM (SK-MEL-2 (melanoma); Homo sapiens, SK-MEL-2, single dose 10 μM, read-out: growth inhibition (GI%)) was 29.8%, the TGI (SK-MEL-2 (melanoma); SK-MEL-2, five-dose assay) was >100 µM and the GI50 (OVCAR-5 (ovarian cancer); Homo sapiens, OVCAR-5, five-dose assay) was 48.4 µM. For the same molecule, the CC50 (OVCAR-5 (ovarian cancer); Homo sapiens, OVCAR-5, five-dose assay, read-out: LC50 (the source's name)) was > 100 µM, the inhibition at 10 µM (OVCAR-5 (ovarian cancer); Homo sapiens, OVCAR-5, single dose 10 μM, read-out: growth inhibition (GI%)) was 33.3% and the TGI (OVCAR-5 (ovarian cancer); OVCAR-5, five-dose assay) was >100 µM. For the same molecule, the GI50 (SK-OV-3 (ovarian cancer); Homo sapiens, SK-OV-3, five-dose assay) was 26 µM, the CC50 (SK-OV-3 (ovarian cancer); Homo sapiens, SK-OV-3, five-dose assay, read-out: LC50 (the source's name)) was > 100 µM and the inhibition at 10 µM (SK-OV-3 (ovarian cancer); Homo sapiens, SK-OV-3, single dose 10 μM, read-out: growth inhibition (GI%)) was 61.4%. The TGI (SK-OV-3 (ovarian cancer); SK-OV-3, five-dose assay) was >100 µM, the GI50 ([5]; MDA-MB-468, five-dose assay) was 12.7 µM and the LC50 (concentration killing 50% of cells) ([5]; MDA-MB-468, five-dose assay) was > 100 µM. It also gave an inhibition at 10 µM ([5]; MDA-MB-468, single dose 10 μM, read-out: growth inhibition (GI%)) of 51.9%.
